Data reported in patent US20090005398A1, “Methods For The Treatment of Central Nervous System Tumors” (priority 2007, published 2009).

Tests used:
Test in all cases: Multiple cell line screen, cell proliferation
Assay type in all cases: cell-based
SNB-19 = conditions: Homo sapiens, SNB-19, 72 h; glioblastoma; nuclei count, 3 days
Method: (§1) Growth properties for multiple cell lines were used to determine two seeding densities for each cell line that would be used in the screen. Cell lines were thawed and grown to 70-80% confluency before being used in the assay. On day −1, cells were seeded at 2 densities in 384-well plates and incubated at 37° C. overnight. Stock compound plates were prepared in advance which contained dimethyl sulfoxide (DMSO) alone and a 9-point half-log decreasing dose range of the compound in DMSO. These plates were stored at −80° C. and each plate was only thawed once and used. On day 0, the main assay plates received compound or DMSO via a sonic delivery system (ECHO). The highest final concentration of compound of the dose range in the culture plates was 10 uM. These plates were cultured at 37° C. for 3 days.
(§2) On day 3, the compound treated plates were stained and fixed to measure proliferation, apoptosis, and mitotic index. A nuclear stain was used to identify cells in the wells. By counting the number of nuclei, the proliferation index of compound treated groups were calculated as a percentage relative to the DMSO control, which was set to 100%. The IC50 values were calculated using model 205 in ExcelFit.

SF-539 = conditions: Homo sapiens, SF-539, 72 h; astrocytoma; nuclei count, 3 days
Method: as §1, §2

D283Med = conditions: Homo sapiens, D283 Med, 72 h; medulloblastoma; nuclei count, 3 days
Method: as §1, §2

A172 = conditions: Homo sapiens, A 172, 72 h; glioblastoma; nuclei count, 3 days
Method: as §1, §2

DK-MG = conditions: 72 h; glioblastoma; nuclei count, 3 days
Method: as §1, §2

SW1088 = conditions: Homo sapiens, SW1088, 72 h; astrocytoma; nuclei count, 3 days
Method: as §1, §2

CCF-SSTG1 = conditions: 72 h; astrocytoma; nuclei count, 3 days
Method: as §1, §2

H4 = conditions: 72 h; glioma; nuclei count, 3 days
Method: as §1, §2

SF-268 = conditions: Homo sapiens, SF-268, 72 h; glioblastoma; nuclei count, 3 days
Method: as §1, §2

SF-295 = conditions: Homo sapiens, SF-295, 72 h; glioblastoma; nuclei count, 3 days
Method: as §1, §2

SNB-75 = conditions: Homo sapiens, SNB-75, 72 h; glioblastoma; nuclei count, 3 days
Method: as §1, §2

DBTRG-05MG = conditions: Homo sapiens, 72 h, glioblastoma, nuclei count, 3 days
Method: as §1, §2

U-87MG = conditions: Homo sapiens, 72 h, glioblastoma, astrocytoma, nuclei count, 3 days
Method: as §1, §2

Measured: IC50

C[C@@H](Oc1cc(-n2cnc3ccc(CN4CCN(C)CC4)cc32)sc1C(N)=O)c1ccccc1C(F)(F)F [Example 1, 5-{6-[(4-Methylpiperazin-1-yl)methyl]-1H-benzimidazol-1-yl}-3-{(1R)-1-[2-(trifluoromethyl)phenyl]ethoxy}thiophene-2-carboxamide]
50 to 100 nM: SNB-75
< 50 nM: all other assays above
